Assay results reported in patent US20250325581A1, “USE OF SODIUM PENTABORATE PENTAHYDRATE AS A CHEMOTHERAPEUTIC AGENT” (YEDITEPE UNIVERSITESI, priority 2022, published 2025).
Like-named read-outs stand apart in the source and are kept apart here.

Columns and labels:
ACHN renal cancer cells = system: ACHN renal cancer cells
Protocol: (§1) The effective dose of NaB on renal cancer was determined by colorimetric tetrazolium (MTS) viability assay on renal cancer cells (ACHN and A498) and healthy renal cells (RPTEC). MTS (3-(4,5-dimethyl-thiazol-2-yl)-5-(3-carboxy-methoxy-phenyl)-2-(4-sulfo-phenyl)-2H-tetrazolium) is a colorimetric assay based on the tetrazolium salt. The assay measures the enzyme activity which reduces MTS to the purple formazan. Cell cultures incubated for two hours are read by measuring the absorbance at 490 nm wavelength by means of ELISA. The NaB compound is dissolved at different concentrations (at ratios of 500 μg/ml, 1000 μg/ml, 1500 μg/ml, 2000 μg/ml, 2500 μg/ml, 3000 μg/ml, 3500 μg/ml for renal cancer cells, and 500 μg/ml, 1000 μg/ml, 2500 μg/ml, 5000 μg/ml, 7000 μg/ml for healthy renal cells) in the medium suitable for the cell used (30 seconds of vortexing is applied after the addition of the agent), filtered through 0.22 micron filters, and sterilized. MTS assays are performed at hours 24, 48, and 72, and as a result, the concentrations of dead cells at the IC50 dose are determined and the next steps are continued with these dosages.

A498 renal cancer cells = system: A498 renal cancer cells
Protocol: as §1

[1] = system: renal cancer cells (ACHN and A498) and healthy renal cells (RPTEC); conditions: IC50 dose for cancer cells applied 72 hours; cancer vs healthy cells
Protocol: Whether the death rates of renal cancer cells treated with the agent at the dosage determined by the MTS assay are dependent on apoptosis or not is determined by Annexin V assay. […] Annexin V binds to PSs, which were translocated to the outer surface of the cell, thereby making the apoptotic cell visible and it is measured by flow cytometry. Since Annexin V binding can also be observed on the surface of necrotic cells, Propidium Iodide (Red Fluorescence), which stains only dead cells, was added as a second stain. Cells, which are simultaneously stained with Annexin V-FITC (Green Fluorescence) and Propidium Iodide (Red Fluorescence), allow viable cells (FITC−PI−), early apoptotic cells (FITC+PI−), and late apoptotic or necrotic cells (FITC+PI+) to be distinguished from each other. Cells marked with Annexin V-FITCH-conjugated markers are analyzed by flow cytometry.

[2] = system: ACHN and A498 renal cancer cells; conditions: dosage determined by the MTS assay
Protocol: Cell proliferation analyses of renal cancer cells treated with the agent at the dosage determined by the MTS assay are performed by EdU (Ethinyl-2′-deoxyuridine) assay. […] For this assay, 10 uM EdU is applied to the cells cultured on slides placed in 6-well plates. Following the incubation, cells are fixed for 15 minutes with 3.7% formaldehyde diluted in PBS, and then washed with 3% BSA also diluted in PBS. Cell membrane permeability is increased by treatment with 0.5% nonionic surfactant diluted in PBS at room temperature for 20 minutes. After a final washing with 3% BSA solution, the reaction cocktail is added to the cells. Cells are incubated at room temperature for 30 minutes, and then the EdU-stained cells, which are actively synthesizing DNA, are observed under a confocal microscope.

Substance: sodium pentaborate pentahydrate
- IC50 determined by MTS (ACHN renal cancer cells; Hour 24): >7000 µg/mL
- IC50 determined by MTS (ACHN renal cancer cells; Hour 48): 2000 µg/mL
- IC50 determined by MTS (dose which killed 50% of renal cancer cells) (ACHN renal cancer cells; Hour 72): 1550 µg/mL
- IC50 (ACHN renal cancer cells; read-out: dose which killed 50% of renal cancer cells, molar equivalent of the μg/ml value): 5.2 mM
- IC50 determined by MTS (A498 renal cancer cells; A498, Hour 24): >7000 µg/mL
- IC50 determined by MTS (A498 renal cancer cells; A498, Hour 48): 1900 µg/mL
- IC50 determined by MTS (dose which killed 50% of renal cancer cells) (A498 renal cancer cells; A498, Hour 72): 1400 µg/mL
- IC50 (A498 renal cancer cells; read-out: dose which killed 50% of renal cancer cells, A498, molar equivalent of the μg/ml value): 4.7 mM
- programmed cell death (apoptosis) [1]: selectively leads cancer cells to programmed cell death
- effect on cell proliferation [2]: slows down cell proliferation
